Reference: patent US7880002B2, “Substituted piperazinyl-pyrrolidine compounds useful as chemokine receptor antagonists” (Millennium Pharmaceuticals, Inc., priority 2004, dated 2011)

The compounds below were run against T1, CCR1 (Homo sapiens, UniProt P32246) (assay: CCR1 inhibition (THP-1 FLIPR assay / THP-1 whole cell radioligand binding assay; the patent does not say which gave the values)). Settings: threshold list, less than 100 nm; compounds of Table 1; read-out: inhibitory activity.
T1 construct: a monocytic derived cell line that endogenously expresses CCR1; host or cells: THP-1 cells
T1 sequence (P32246 1-355): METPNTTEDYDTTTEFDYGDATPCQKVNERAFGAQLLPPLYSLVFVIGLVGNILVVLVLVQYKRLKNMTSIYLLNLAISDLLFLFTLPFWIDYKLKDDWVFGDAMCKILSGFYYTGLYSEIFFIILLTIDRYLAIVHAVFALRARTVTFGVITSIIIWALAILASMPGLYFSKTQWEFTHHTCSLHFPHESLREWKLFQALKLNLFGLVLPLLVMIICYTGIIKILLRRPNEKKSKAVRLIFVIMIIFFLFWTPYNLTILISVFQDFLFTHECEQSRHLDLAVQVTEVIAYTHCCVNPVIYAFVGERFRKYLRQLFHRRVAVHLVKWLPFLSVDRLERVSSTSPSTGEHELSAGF
Assay type: cell-based
Experimental: The primary screening assay is a FLIPR® (Fluorometric Imaging Plate Reader, available from Molecular Devices Corporation, Sunnyvale, Calif.) assay using THP-1 cells (ATCC, Catalog No. TIB 202), a monocytic derived cell line that endogenously expresses CCR1.
The cells were resuspended at 1×10^6 cells/ml in dye loading media (growth media (RPMI+10% FBS (Fetal Bovine serum)+5.5×10^−5M 2-mercaptoethanol)+10 mM HEPES (N-2-hydroxyethylpiperazine-N′-2-ethane-sulfonic acid)+2.5 mM probenecid+fluo-3 (1:250)). The cells were incubated for 1 hour at 37° C. and then washed in FLIPR wash buffer (100 mL 10× HBSS (Hanks Buffered Saline Solution) (w/Ca++/Mg++)+20 mL 1M HEPES+1 g BSA+10 mL 250 mM probenecid+water (to make 1 L)) and plated at 50,000 cells/well in black/clear 384 well plates. The plates were transferred to FLIPR where the ability of different concentrations of compounds to inhibit RANTES induced calcium flux was assessed. Inhibition of the CCR1 response was reflected by a decrease of the fluorescence signal relative to the positive controls (RANTES alone).
THP-1 Whole Cell Radioligand Binding Assay
The cells were washed with PBS (phosphate buffered saline) and resuspended in binding buffer (10 mM HEPES pH 7.2, 1× HBSS (w/Ca^2+, Mg^2+) 0.5% BSA, 0.02% Na-azide) at 4×10^6 cells/ml (for 200, 000 cells/well). Cells were incubated with 0.1 to 0.2 nM [^125I]-labeled MIP-1α with or without unlabeled competitor (MIP-1α) or various concentrations of compounds for 60 minutes at room temperature. The assay was terminated by vacuum filtration through glass fiber filters (GF/B, Packard) which were presoaked in 0.3% polyethyleneimine. The filters were washed with wash buffer (10 mM HEPES, pH 7.2, 1 mM CaCl2, 5 mM MgCl2 0.5M NaCl), dried and the amount of bound radioactivity was determined by scintillation counting.

Structure (SMILES)	IC50 [nM]
Cc1nc(C(F)(F)F)nc(N2C[C@@H](O)[C@H](N3CCN(C(=O)c4ccc(Cl)cc4)CC3)C2)c1C (stereo in doubt) [Example 119, 4-[4-(4-chlorobenzoyl)piperazin-1-yl]-1-[5,6-dimethyl-2-(trifluoromethyl)pyrimidin-4-yl]pyrrolidin-3-ol]	< 100
CCc1cc(C(F)(F)F)nc(N2C[C@@H](O)[C@H](N3CCN(C(=O)c4ccc(Cl)cc4)CC3)C2)n1 (stereo in doubt) [Example 121, 4-[4-(4-chlorobenzoyl)piperazin-1-yl]-1-[4-ethyl-6-(trifluoromethyl)pyrimidin-2-yl]pyrrolidin-3-ol]	< 100
CC(C)c1cc(C(F)(F)F)nc(N2C[C@@H](O)[C@H](N3CCN(C(=O)c4ccc(Cl)cc4)CC3)C2)n1 (stereo in doubt) [Example 123, 4-[4-(4-chlorobenzoyl)piperazin-1-yl]-1-[4-isopropyl-6-(trifluoromethyl)pyrimidin-2-yl]pyrrolidin-3-ol]	< 100
Cc1nc2ccccc2nc1N1C[C@H](O)[C@@H](N2CCN(C(=O)c3ccc(Cl)cc3)CC2)C1 (stereo in doubt) [Example 125, 4-[4-(4-chlorobenzoyl)piperazin-1-yl]-1-(3-methylquinoxalin-2-yl)pyrrolidin-3-ol]	< 100
O=C(c1ccc(Cl)cc1)N1CCN([C@H]2CN(c3cc(C(F)(F)F)c4ccccc4n3)C[C@@H]2O)CC1 (stereo in doubt) [Example 127, 4-[4-(4-chlorobenzoyl)piperazin-1-yl]-1-[4-(trifluoromethyl)quinolin-2-yl]pyrrolidin-3-ol]	< 100
O=C(c1ccc(Cl)cc1)N1CCN([C@H]2CN(c3ncnc4cc(C(F)(F)F)ccc34)C[C@@H]2O)CC1 (stereo in doubt) [Example 132, 4-[4-(4-chlorobenzoyl)piperazin-1-yl]-1-[7-(trifluoromethyl)quinazolin-4-yl]pyrrolidin-3-ol]	< 100
Cc1cc(N2C[C@@H](O)[C@H](N3CCN(C(=O)c4ccc(Cl)cc4)CC3)C2)nc(C(F)(F)F)n1 (stereo in doubt) [Example 146, 4-[4-(4-chlorobenzoyl)piperazin-1-yl]-1-[6-methyl-2-(trifluoromethyl)pyrimidin-4-yl]pyrrolidin-3-ol]	< 100
O=C(c1ccc(Cl)cc1)N1CCN([C@@H]2CN(c3ncnc4cc(Cl)c(F)cc34)C[C@H]2O)CC1 (stereo in doubt) [Example 161, 4-[4-(4-chlorobenzoyl)piperazin-1-yl]-1-(7-chloro-6-fluoroquinazolin-4-yl)pyrrolidin-3-ol]	< 100
COc1ccc2nc(C(F)(F)F)nc(N3C[C@H](O)[C@@H](N4CCN(C(=O)c5ccc(Cl)cc5)CC4)C3)c2c1 (stereo in doubt) [Example 165, 4-[4-(4-chlorobenzoyl)piperazin-1-yl]-1-[6-methoxy-2-(trifluoromethyl)quinazolin-4-yl]pyrrolidin-3-ol]	< 100
O=C(c1ccc(Cl)cc1)N1CCN([C@H]2CN(c3nc(C(F)(F)F)nc4cc(F)ccc34)C[C@@H]2O)CC1 (stereo in doubt) [Example 171, 4-[4-(4-chlorobenzoyl)piperazin-1-yl]-1-[7-fluoro-2-(trifluoromethyl)quinazolin-4-yl]pyrrolidin-3-ol]	< 100
O=C(c1ccc(Cl)cc1)N1CCN([C@H]2CN(c3nc(C(F)(F)F)nc4cccc(F)c34)C[C@@H]2O)CC1 (stereo in doubt) [Example 172, 4-[4-(4-chlorobenzoyl)piperazin-1-yl]-1-[5-fluoro-2-(trifluoromethyl)quinazolin-4-yl]pyrrolidin-3-ol]	< 100
O=C(c1ccc(Cl)cc1)N1CCN([C@H]2CN(c3nc(C(F)(F)F)nc4ccc(Cl)cc34)C[C@@H]2O)CC1 (stereo in doubt) [Example 173, 4-[4-(4-chlorobenzoyl)piperazin-1-yl]-1-[6-chloro-2-(trifluoromethyl)quinazolin-4-yl]pyrrolidin-3-ol]	< 100
Cc1ccc2nc(C(F)(F)F)nc(N3C[C@H](O)[C@@H](N4CCN(C(=O)c5ccc(Cl)cc5)CC4)C3)c2c1 (stereo in doubt) [Example 174, 4-[4-(4-chlorobenzoyl)piperazin-1-yl]-1-[6-methyl-2-(trifluoromethyl)quinazolin-4-yl]pyrrolidin-3-ol]	< 100
O=C(c1ccc(Cl)cc1)N1CCN([C@H]2CN(c3nc(C(F)(F)F)nc4cccc(Cl)c34)C[C@@H]2O)CC1 (stereo in doubt) [Example 176, 4-[4-(4-chlorobenzoyl)piperazin-1-yl]-1-[5-chloro-2-(trifluoromethyl)quinazolin-4-yl]pyrrolidin-3-ol]	< 100
O=C(c1ccc(Cl)cc1)N1CCN([C@H]2CN(c3nc(C(F)(F)F)nc4c(F)cccc34)C[C@@H]2O)CC1 (stereo in doubt) [Example 178, 4-[4-(4-chlorobenzoyl)piperazin-1-yl]-1-[8-fluoro-2-(trifluoromethyl)quinazolin-4-yl]pyrrolidin-3-ol]	< 100
O=C(c1ccc(Cl)cc1)N1CCN([C@H]2CN(c3nc(C(F)(F)F)nc4cc(F)c(F)cc34)C[C@@H]2O)CC1 (stereo in doubt) [Example 179, 4-[4-(4-chlorobenzoyl)piperazin-1-yl]-1-[6,7-difluoro-2-(trifluoromethyl)quinazolin-4-yl]pyrrolidin-3-ol]	< 100
COC(=O)c1ccc2nc(C(F)(F)F)nc(N3C[C@@H](O)[C@H](N4CCN(C(=O)c5ccc(Cl)cc5)CC4)C3)c2c1 (stereo in doubt) [Example 180, methyl 4-{3-[4-(4-chlorobenzoyl)piperazin-1-yl]-4-hydroxypyrrolidin-1-yl}-2-(trifluoromethyl)quinazoline-6-carboxylate]	< 100
O=C(O)c1ccc2nc(C(F)(F)F)nc(N3C[C@@H](O)[C@H](N4CCN(C(=O)c5ccc(Cl)cc5)CC4)C3)c2c1 (stereo in doubt) [Example 181, 4-{3-[4-(4-chlorobenzoyl)piperazin-1-yl]-4-hydroxypyrrolidin-1-yl}-2-(trifluoromethyl)quinazoline-6-carboxylic acid]	< 100
CCOc1ccc2nc(C(F)(F)F)nc(N3C[C@H](O)[C@@H](N4CCN(C(=O)c5ccc(Cl)cc5)CC4)C3)c2c1 (stereo in doubt) [Example 184, 4-[4-(4-chlorobenzoyl)piperazin-1-yl]-1-[6-ethoxy-2-(trifluoromethyl)quinazolin-4-yl]pyrrolidin-3-ol]	< 100
Nc1ccc2nc(C(F)(F)F)nc(N3C[C@H](O)[C@@H](N4CCN(C(=O)c5ccc(Cl)cc5)CC4)C3)c2c1 (stereo in doubt) [Example 186, 1-[6-amino-2-(trifluoromethyl)quinazolin-4-yl]-4-[4-(4-chlorobenzoyl)piperazin-1-yl]pyrrolidin-3-ol]	< 100
CN(C)c1ccc2nc(C(F)(F)F)nc(N3C[C@H](O)[C@@H](N4CCN(C(=O)c5ccc(Cl)cc5)CC4)C3)c2c1 (stereo in doubt) [Example 187, 4-[4-(4-chlorobenzoyl)piperazin-1-yl]-1-[6-(dimethylamino)-2-(trifluoromethyl)quinazolin-4-yl]pyrrolidin-3-ol]	< 100
O=C(c1ccc(Cl)cc1)N1CCN([C@H]2CN(c3nc(C(F)(F)F)nc4ccc([N+](=O)[O-])cc34)C[C@@H]2O)CC1 (stereo in doubt) [Example 188, 4-[4-(4-chlorobenzoyl)piperazin-1-yl]-1-[6-nitro-2-(trifluoromethyl)quinazolin-4-yl]pyrrolidin-3-ol]	< 100
COC(=O)Nc1ccc2nc(C(F)(F)F)nc(N3C[C@H](O)[C@@H](N4CCN(C(=O)c5ccc(Cl)cc5)CC4)C3)c2c1 (stereo in doubt) [Example 190, methyl [4-{3-[4-(4-chlorobenzoyl)piperazin-1-yl]-4-hydroxypyrrolidin-1-yl}-2-(trifluoromethyl)quinazolin-6-yl]carbamate]	< 100
NC(=O)Nc1ccc2nc(C(F)(F)F)nc(N3C[C@H](O)[C@@H](N4CCN(C(=O)c5ccc(Cl)cc5)CC4)C3)c2c1 (stereo in doubt) [Example 194, N-[4-{3-[4-(4-chlorobenzoyl)piperazin-1-yl]-4-hydroxypyrrolidin-1-yl}-2-(trifluoromethyl)quinazolin-6-yl]urea]	< 100
